Columns and labels:
[1] = tested on: RTV-1058 clone 5 (RT L100I, K103N); test: Phenotypic susceptibility assay (patient RTV clone); assay type: cell-based, HIV-1
Description: (§1) The resistance test vectors containing a functional luciferase gene cassette were constructed and host cells were transfected with the resistance test vector DNA. The resistant test vectors contained patient-derived reverse transcriptase and protease sequences that were either susceptible or resistant to the antiretroviral agents, such as nucleoside reverse transcriptase inhibitors, non-nucleoside reverse transcriptase inhibitors and protease inhibitors. The resistance test vector viral particles produced by transfecting the resistance test vector DNA into host cells, either in the presence or absence of protease inhibitors, were used to infect target host cells grown either in the absence of NRTI or NNRTI or in the presence of increasing concentrations of the drug. The amount of luciferase activity produced in infected target host cells in the presence of drug was compared to the amount of luciferase produced in infected target host cells in the absence of drug. Drug resistance was measured as the amount of drug required to inhibit by 50% the luciferase activity detected in the absence of drug (inhibitory concentration 50%, IC50). The IC50 values were determined by plotting percent drug inhibition vs. log10 drug concentration.
(§2) Host cells were seeded in 10-cm-diameter dishes and were transfected several days after plating with resistance test vector plasmid DNA and the envelope expression vector. Transfections were performed using a calcium-phosphate precipitation procedure. The cell culture media containing the DNA precipitate was replaced with fresh medium, from one to 24 hours, after transfection. Cell culture media containing resistance test vector viral particles was harvested one to four days after transfection and was passed through a […] filter before being stored at […]. HIV capsid protein (p24) levels in the harvested cell culture media were determined by an EIA method as described by the manufacturer (SIAC; Frederick, Md.). Before infection, target cells (293 and 293/T) were plated in cell culture media. Control infections were performed using cell culture media from mock transfections (no DNA) or transfections containing the resistance test vector plasmid DNA without the envelope expression plasmid. One to three or more days after infection the media was removed and cell lysis buffer (Promega) was added to each well. Cell lysates were assayed for luciferase activity (FIG. 3). The inhibitory effect of the drug was determined using the following equation: % luciferase inhibition=1−(RLUluc [drug]÷RLUluc)×100 where RLUluc [drug] is the relative light unit of luciferase activity in infected cells in the presence of drug and RLUluc is the Relative Light Unit of luciferase activity in infected cells in the absence of drug. IC50 values were obtained from the sigmoidal curves that were generated from the data by plotting the percent inhibition of luciferase activity vs. the log10 drug concentration. The drug inhibition curves are shown in (FIG. 3).
(§3) A resistance test vector was constructed as described in Example 1 from a patient sample designated 98-1058. This patient had been previously treated with ddI, d4T, AZT, 3TC, ddC and abacavir (NRTIs), indinavir and amprenavir (PRIs) and nevirapine (an NNRTI). Isolation of viral RNA and RT/PCR was used to generate a patient derived segment that comprised viral sequences coding for all of RP and aa 1-313 of RT. The PDS was inserted into an indicator gene viral vector to generate a resistance test vector designated RTV-1058. Individual clones of RTV-1058 were selected and were then tested in a phenotypic assay to determine accurately and quantitatively the level of susceptibility to a panel of anti-retroviral drugs. The panel of antiretroviral drugs comprised members of the classes known as NRTIs (AZT, 3TC, d4T, kkI an ddC), NNRTIs (delavirdine and nevirapine), an PRIs (indinavir, nelfinavir, ritonavir, and saquinavir). […]

[2] = tested on: RTV-1058 clone 4 (RT K103N); test: as above; assay type: cell-based, HIV-1
Description: as §1, §2, §3

[3] = tested on: HIV reverse transcriptase with mutations at codon 230 (leucine) and 181 (cysteine); test: Phenotypic susceptibility assay; assay type: cell-based; conditions: mutations at codons 230 and 181
Description: In another specific embodiment, the invention provides for a method of evaluating the effectiveness of NNRTI antiretroviral therapy of a patient comprising (i) collecting a biological sample from an HIV-infected patient; and (ii) determining whether the biological sample comprises nucleic acid encoding HIV RT having a mutation at codon(s) 230 and/or 181. […] In another specific embodiment, the invention provides for a method of evaluating the effectiveness of NNRTI antiretroviral therapy of a patient comprising (i) collecting a biological sample from an HIV-infected patient; and (ii) determining whether the biological sample comprises nucleic acid encoding HIV RT having a mutation at codon 181. […] In another specific embodiment, the invention provides for a method of evaluating the effectiveness of NNRTI antiretroviral therapy of a patient comprising (i) collecting a biological sample from an HIV-infected patient; and (ii) determining whether the biological sample comprises nucleic acid encoding HIV RT having a mutation at codon 188. […]

SMILES	loss of susceptibility (fold, IC50) [1]	loss of susceptibility (fold, IC50) [2]	change in susceptibility [3]
CC(C)Nc1cccnc1N1CCN(C(=O)c2cc3cc(NS(C)(=O)=O)ccc3[nH]2)CC1 [delavirdine]	250 fold	85 fold	significant decrease
Cc1ccnc2c1NC(=O)c1cccnc1N2C1CC1 [nevirapine]	120 fold	greater than 800 fold	significant decrease
